The source made the active and inactive calls. The calls are words filed in the database; no cut-off is given here.
Assays:
PANC-1 = test: Antiproliferative activity against human PANC-1 cells assessed as inhibition of cell growth incubated for 72 hrs by CCK-8 assay; format: functional, cell-based; conditions: PANC-1, 72 h
MIA PaCa-2 = test: Antiproliferative activity against human MIA PaCa-2 cells assessed as inhibition of cell growth incubated for 72 hrs by CCK-8 assay; format: functional, cell-based; conditions: MIA PaCa-2, 72 h
SW1990 = test: Antiproliferative activity against human SW1990 cells assessed as inhibition of cell growth incubated for 72 hrs by CCK-8 assay; format: functional, cell-based; conditions: SW1990, 72 h
Capan-2 = test: Antiproliferative activity against human Capan-2 cells assessed as inhibition of cell growth incubated for 72 hrs by CCK-8 assay; format: functional, cell-based
[1] = Cmax in Sprague-Dawley rat at 2 mg/kg, iv measured upto 48 hrs by LC-MS/MS analysis; format: ADME, organism-based; conditions: in vivo
[2] = Half life in Sprague-Dawley rat at 2 mg/kg, iv measured upto 48 hrs by LC-MS/MS analysis; format: ADME, organism-based; conditions: in vivo
[3] = Toxicity in NOD-SCID mouse xenografted with human ASPC1 cells assessed as body weight loss at 10 mg/kg, ip administered for once daily for 14 days; format: organism-based; conditions: in vivo, 336 h, time 14 day
ASPC1 [4] = test: Antitumor activity against human ASPC1 cells xenografted in NOD-SCID mouse assessed as reduction in tumor weight at 10 mg/kg, ip administered for 14 days; format: functional, organism-based; conditions: time 14.0 day
ASPC1 [5] = test: Antitumor activity against human ASPC1 cells xenografted in NOD-SCID mouse assessed as tumor growth inhibition at 10 mg/kg, ip administered for 14 days; format: functional; conditions: ASPC1, 336 h, time 14 day, read-out: TGI
[6] = molecular target: T1, Phospholipid hydroperoxide glutathione peroxidase GPX4 (Homo sapiens) (UniProt P36969); test: Binding affinity to GPX4 in human ASPC1 cells at 0.2 uM incubated for 1 hr in presence of 4-(((4-(benzo[d]thiazol-2-yl)phenyl)(methyl)amino)methyl)-N-ethynyl-N-methylbenzenesulfonamide by SDS-PAGE analysis; format: cell-based
T1 sequence (whole entry): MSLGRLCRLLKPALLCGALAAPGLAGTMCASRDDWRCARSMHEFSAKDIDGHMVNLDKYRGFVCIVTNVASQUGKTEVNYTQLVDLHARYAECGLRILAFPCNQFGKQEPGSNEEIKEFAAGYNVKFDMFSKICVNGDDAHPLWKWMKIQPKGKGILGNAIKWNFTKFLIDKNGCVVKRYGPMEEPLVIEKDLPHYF

[7] = molecular target: T1, Phospholipid hydroperoxide glutathione peroxidase GPX4 (Homo sapiens); test: Binding affinity to GPX4 in human CFPAC-1 cells at 0.2 uM incubated for 1 hr by SDS-PAGE analysis; format: cell-based
[8] = molecular target: T1, Phospholipid hydroperoxide glutathione peroxidase GPX4 (Homo sapiens); test: Binding affinity to GPX4 in human Panc1005 cells at 0.2 uM incubated for 1 hr by SDS-PAGE analysis; format: cell-based
[9] = molecular target: T1, Phospholipid hydroperoxide glutathione peroxidase GPX4 (Homo sapiens); test: Binding affinity to GPX4 in human HPAC cells at 0.2 uM incubated for 1 hr by SDS-PAGE analysis; format: cell-based
[10] = molecular target: T1, Phospholipid hydroperoxide glutathione peroxidase GPX4 (Homo sapiens); test: Binding affinity to GPX4 in human Hs766T cells at 0.2 uM incubated for 1 hr by SDS-PAGE analysis; format: cell-based
[11] = molecular target: T2, Fructose-bisphosphate aldolase A (Homo sapiens) (UniProt P04075); test: Binding affinity to ALDOA in human ASPC1 cells at 1 uM incubated for 5 hrs by Western blot analysis; format: cell-based
T2 sequence (whole entry): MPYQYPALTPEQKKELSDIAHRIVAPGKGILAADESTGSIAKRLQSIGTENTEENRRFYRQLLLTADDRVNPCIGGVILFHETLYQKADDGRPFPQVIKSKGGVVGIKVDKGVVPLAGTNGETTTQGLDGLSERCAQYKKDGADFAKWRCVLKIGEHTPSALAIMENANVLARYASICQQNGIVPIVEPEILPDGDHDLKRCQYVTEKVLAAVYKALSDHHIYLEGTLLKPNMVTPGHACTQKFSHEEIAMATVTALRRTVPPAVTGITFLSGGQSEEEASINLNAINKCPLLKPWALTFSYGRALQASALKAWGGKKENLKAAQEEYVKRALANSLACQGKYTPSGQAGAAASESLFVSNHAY

[12] = molecular target: T1, Phospholipid hydroperoxide glutathione peroxidase GPX4 (Homo sapiens); test: Binding affinity to GPX4 in human ASPC1 cells assessed as thermal stability at 10 uM at 43 to 64 degreeC for 3 mins by CETSA analysis; format: cell-based
[13] = molecular target: T1, Phospholipid hydroperoxide glutathione peroxidase GPX4 (Homo sapiens); test: Binding affinity to GPX4 in human ASPC1 cells incubated for 1 hr by imaging analysis; format: cell-based; conditions: dose 0.2-5 µM
[14] = molecular target: T1, Phospholipid hydroperoxide glutathione peroxidase GPX4 (Homo sapiens); test: Competitive binding affinity to GPX4 in human ASPC1 cells at 0.2 uM incubated for 1 hr in presence of ML162; format: cell-based
[15] = molecular target: T1, Phospholipid hydroperoxide glutathione peroxidase GPX4 (Homo sapiens); test: Competitive binding affinity to GPX4 in human ASPC1 cells at 0.2 uM incubated for 1 hr in presence of ML210; format: cell-based
[16] = molecular target: T1, Phospholipid hydroperoxide glutathione peroxidase GPX4 (Homo sapiens); test: Binding affinity to GPX4 in human ASPC1 cells at 0.2 uM incubated for 1 hr by immunofluorescence based confocal microscopic analysis; format: cell-based
[17] = molecular target: T1, Phospholipid hydroperoxide glutathione peroxidase GPX4 (Homo sapiens); test: Competitive binding affinity to GPX4 in human ASPC1 cells at 0.2 uM incubated for 1 hr in presence of ML162 by immunofluorescence based confocal microscopic analysis; format: cell-based
ASPC1 [18] = test: Induction of ferroptosis in human ASPC1 cells assessed as cell death at 2 uM in presence of Ferrostatin-1; format: functional, cell-based
ASPC1 [19] = test: Induction of ferroptosis in human ASPC1 cells assessed as cell death at 2 uM in presence of Z-VAD-FMK; format: functional, cell-based
ASPC1 [20] = test: Induction of ferroptosis in human ASPC1 cells assessed as cell death at 2 uM in presence of Necrostatin-1; format: functional, cell-based
ASPC1 [21] = test: Induction of ferroptosis in human ASPC1 cells assessed as cell death at 2 uM in presence of 3-methyladenine; format: functional, cell-based
ASPC1 [22] = test: Induction of ferroptosis in human ASPC1 cells assessed as decrease in intracellular GSH level at 5 uM incubated for 5 hrs in presence of […]; format: functional, cell-based
ASPC1 [23] = test: Induction of ferroptosis in human ASPC1 cells assessed as reduction in cell viability incubated for 72 hrs by CCK-8 assay; format: functional, cell-based; conditions: ASPC1, 72 h
NCI-H522 = test: Induction of ferroptosis in human NCI-H522 cells assessed as reduction in cell viability incubated for 72 hrs by CCK-8 assay; format: functional, cell-based; conditions: NCI-H522, 72 h
HCT-116 = test: Induction of ferroptosis in human HCT-116 cells assessed as reduction in cell viability incubated for 72 hrs by CCK-8 assay; format: functional, cell-based; conditions: HCT-116, 72 h
ASPC1 [24] = test: Induction of ferroptosis in human ASPC1 cells assessed as reduction in cell viability incubated for 24 hrs by CCK-8 assay; format: functional, cell-based; conditions: ASPC1, 24 h
ASPC1 [25] = test: Induction of ferroptosis in human ASPC1 cells assessed as reduction in cell viability incubated for 48 hrs by CCK-8 assay; format: functional, cell-based; conditions: ASPC1, 48 h

`C#CCN(Cc1ccc(S(=O)(=O)N(C)C#C)cc1)c1ccc(-c2nc3ccccc3s2)cc1` showed an IC50 (PANC-1) of 20 nM, an IC50 (MIA PaCa-2) of 20 nM and an IC50 (SW1990) of 20 nM. The Activity (Capan-2) was “inactive”, the Cmax [1] was 2250 ng/mL and the half-life [2] was 153 min. The Activity [3] was “Non-Toxic”, the Activity (ASPC1 [4]) was “Active” and the inhibition in vivo at 10 mg/kg (ASPC1 [5]) was 28%. The Activity [6] was “Active”, the Activity [7] was “Active” and the Activity [8] was “Active”. The Activity [9] was “Active”, the Activity [10] was “Active” and the Activity [11] was “Active”. For the same compound, the Activity [12] was “Active”, the Activity [13] was “Dose-Dependent Effect” and the Activity [14] was “Active”. The Activity [15] was “Active”, the Activity [16] was “Active” and the Activity [17] was “inactive”. The Activity (ASPC1 [18]) was “inactive”, the Activity (ASPC1 [19]) was “inactive” and the Activity (ASPC1 [20]) was “inactive”. For the same compound, the Activity (ASPC1 [21]) was “inactive”, the Activity (ASPC1 [22]) was “Active” and the IC50 (ASPC1 [23]) was 14 nM. For the same compound, the IC50 (NCI-H522) was 3 nM, the IC50 (HCT-116) was > 10 µM and the IC50 (ASPC1 [24]) was 37 nM. The IC50 (ASPC1 [25]) was 26 nM.

Reference: ChEMBL document CHEMBL5537195, “Novel Covalent Probe Selectively Targeting Glutathione Peroxidase 4 In Vivo: Potential Applications in Pancreatic Cancer Therapy” (J Med Chem, 2024)
